One assay deals with IL-1β. In words: LPS-induced IL-1β production in mice. The format is in vivo, mouse. The following applies: PO @ 100 mg/kg, compound given 1 hour relative to LPS challenge. The protocol: In vivo Acute Assay for Efficacy as Anti-inflammatory Agent
LPS-Induced IL-1β Production
Efficacy is evaluated in CD1 mice (n is 6 per condition, for example) challenged with LPS (20 mg/kg IP). The test compounds are prepared in olive oil:DMSO:ethanol (90:5:5) and administered by IP injection one hour after LPS. Blood is collected seven hours after LPS challenge. Serum IL-1β levels are measured by ELISA.
Compounds may also be administered by oral gavage to assess absorption.
We obtained inhibition data in Table 5 using the methods described in Example 12. Efficacy for Prodrugs in LPS-Induced IL-1β Production in Mice. Time of compound administration relative to time of LPS challenge was 1 hour. Dose of compound was PO @ 100 mg/kg.

Assay [1] deals with mature IL-1β in human PBMC. In words: PBMC cell assay (IL-1β assay with human peripheral blood mononuclear cells). The format is cell-based. The following applies: LPS-stimulated human PBMC, mature IL-1β by ELISA. From the text:
IL-1β Assay with a Mixed Population of Human Peripheral Blood Mononuclear Cells (PBMC) or Enriched Adherent Mononuclear Cells
Processing of pre-IL-1β by ICE can be measured in cell culture using a variety of cell sources. Human PBMC obtained from healthy donors provides a mixed population of lymphocyte subtypes and mononuclear cells that produce a spectrum of interleukins and cytokines in response to many classes of physiological stimulators. Adherent mononuclear cells from PBMC provides an enriched source of normal monocytes for selective studies of cytokine production by activated cells.
An initial dilution series of test compound in DMSO or ethanol is prepared, with a subsequent dilution into RPMI-10% FBS media (containing 2 mM L-glutamine, 10 mM HEPES, 50 U and 50 ug/ml pen/strep) respectively to yield drugs at 4×the final test concentration containing 0.4% DMSO or 0.4% ethanol. The final concentration of DMSO is 0.1% for all drug dilutions. A concentration titration which brackets the apparent Ki for a test compound determined in an ICE inhibition assay is generally used for the primary compound screen.
Generally 5-6 compound dilutions are tested and the cellular component of the assay is performed in duplicate, with duplicate ELISA determinations on each cell culture supernatant.
Buffy coat cells isolated from one pint human blood (yielding 40-45 ml final volume plasma plus cells) are diluted with media to 80 ml and LeukoPREP separation tubes (Becton Dickinson) are each overlaid with 10 ml of cell suspension. After 15 min centrifugation at 1500-1800×g, the plasma/media layer is aspirated and then the mononuclear cell layer is collected with a Pasteur pipette and transferred to a 15 ml conical centrifuge tube (Corning). Media is added to bring the volume to 15 ml, gently mix the cells by inversion and centrifuge at 300×g for 15 min. The PBMC pellet is resuspended in a small volume of media, the cells are counted and adjusted to 6×10^6 cells/ml.
For the cellular assay, 1.0 ml of the cell suspension is added to each well of a 24-well flat bottom tissue culture plate (Corning), 0.5 ml test compound dilution and 0.5 ml LPS solution (Sigma #L-3012; 20 ng/ml solution prepared in complete RPMI media; final LPS concentration 5 ng/ml). The 0.5 ml additions of test compound and LPS are usually sufficient to mix the contents of the wells. Three control mixtures are run per experiment, with either LPS alone, solvent vehicle control, and/or additional media to adjust the final culture volume to 2.0 ml. The cell cultures are incubated for 16-18 hr at 37° C. in the presence of 5% CO2.
At the end of the incubation period, cells are harvested and transferred to 15 ml conical centrifuge tubes. After centrifugation for 10 min at 200×g, supernatants are harvested and transferred to 1.5 ml Eppendorf tubes. It may be noted that the cell pellet may be utilized for a biochemical evaluation of pre-IL-1β and/or mature IL-1β content in cytosol extracts by Western blotting or ELISA with pre-IL-1β specific antisera.
PBMC are isolated and prepared as described above. Media (1.0 ml) is first added to wells followed by 0.5 ml of the PBMC suspension. After a one hour incubation, plates are gently shaken and nonadherent cells aspirated from each well. Wells are then gently washed three times with 1.0 ml of media and final resuspended in 1.0 ml media. The enrichment for adherent cells generally yields 2.5-3.0×10^5 cells per well. […]
Background: An ELISA detects its analyte on a solid surface through an enzyme-linked reagent.

The subject of assay [2] is IL-1β production in human whole blood. In words: Whole blood assay for IL-1β production. The format is cell-based. The following applies: LPS-stimulated human whole blood, IL-1β by ELISA. As for the experimental part: Whole Blood Assay for IL-1β Production
The whole blood assay is a simple method for measuring the production of IL-1β (or other cytokines) and the activity of potential inhibitors. The complexity of this assay system, with its full complement of lymphoid and inflammatory cell types, spectrum of plasma proteins and red blood cells is an ideal in vitro representation of human in vivo physiologic conditions.
Set incubator or water bath at 30° C. Aliquot 0.25 ml of blood into 1.5 ml eppendorf tubes. Note: be sure to invert the whole blood sample tubes after every two aliquots. Differences in replicates may result if the cells sediment and are not uniformly suspended. Use of a positive displacement pipette will also minimize differences between replicate aliquots.
Prepare drug dilutions in sterile pyrogen-free saline by serial dilution. A dilution series which brackets the apparent Ki for a test compound determined in an ICE inhibition assay is generally used for the primary compound screen. For extremely hydrophobic compounds, prepare compound dilutions in fresh plasma obtained from the same blood donor or in PBS-containing 5% DMSO to enhance solubility.
Add 25 μl test compound dilution or vehicle control and gently mix the sample. Then add 5.0 μl LPS solution (250 ng/ml stocked prepared fresh: 5.0 ng/ml final concentration LPS), and mix again. Incubate the tubes at […] in a water bath for 16-18 hr with occasional mixing. Alternatively, the tubes can be placed in a rotator set at 4 rpm for the same incubation period. This assay should be set up in duplicate or triplicate with the following controls: negative control—no LPS; positive control—no test inhibitor; vehicle control—the highest concentration of DMSO or compound solvent used in the experiment. Additional saline is added to all control tubes to normalize volumes for both control and experimental whole blood test samples.
After the incubation period, whole blood samples are centrifuged for 10 minutes at ˜2000 rpm in the microfuge, plasma is transferred to a fresh microfuge tube and centrifuged at 1000×g to pellet residual platelets if necessary. Plasma samples may be stored frozen at −70° C. prior to assay for cytokine levels by ELISA.
R & D Systems (614 McKinley Place N.E. Minneapolis, Minn. 55413) Quantikine kits may be used for measurement of IL-1β and TNF-α. The assays are performed according to the manufacturer's directions. IL-1β levels of ˜1-5 ng/ml in positive controls among a range of individuals may be observed. A 1:200 dilution of plasma for all samples is usually sufficient for experiments for ELISA results to fall on the linear range of the ELISA standard curves. It may be necessary to optimize standard dilutions if you observe differences in the whole blood assay. Nerad, J. L. et al., J. Leukocyte Biol., 52, pp. 687-692 (1992).

Another assay concerns the target T1, ICE (Homo sapiens, UniProt P29466).
T1 sequence (P29466 120-297 limits assumed): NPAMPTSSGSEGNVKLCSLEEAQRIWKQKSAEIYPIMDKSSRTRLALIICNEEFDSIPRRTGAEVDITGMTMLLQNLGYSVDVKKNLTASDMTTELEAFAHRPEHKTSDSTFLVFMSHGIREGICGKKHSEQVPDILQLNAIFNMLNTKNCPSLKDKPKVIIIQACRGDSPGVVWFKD
T1 sequence (P29466 317-404 limits assumed): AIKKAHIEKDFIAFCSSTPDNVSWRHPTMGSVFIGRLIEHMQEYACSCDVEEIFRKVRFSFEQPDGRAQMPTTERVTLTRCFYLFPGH
In words: Enzyme assay with UV-visible substrate (ICE inhibition). The format is biochemical. The following applies: Succinyl-Tyr-Val-Ala-Asp-p-Nitroanilide substrate. The protocol: 1. Enzyme Assay with UV-visible Substrate
This assay is run using an Succinyl-Tyr-Val-Ala-Asp-p-Nitroanilide substrate. Synthesis of analogous substrates is described by L. A. Reiter (Int. J. Peptide Protein Res., 43, pp. 87-96 (1994)). The assay mixture contains:
65 μl buffer (10 mM Tris, 1 mM DTT, 0.1% CHAPS @ pH 8.1)
10 μl ICE (50 nM final concentration to give a rate of ˜1 mOD/min)
5 μl DMSO/Inhibitor mixture
20 μl 400 μM Substrate (80 μM final concentration)
100 μl total reaction volume
The visible ICE assay is run in a 96-well microtiter plate. Buffer, ICE and DMSO (if inhibitor is present) are added to the wells in the order listed. The components are left to incubate at room temperature for 15 minutes starting at the time that all components are present in all wells. The microtiter plate reader is set to incubate at 37° C. After the 15 minute incubation, substrate is added directly to the wells and the reaction is monitored by following the release of the chromophore (pNA) at 405-603 nm at 37° C. for 20 minutes. A linear fit of the data is performed and the rate is calculated in mOD/min. DMSO is only present during experiments involving inhibitors, buffer is used to make up the volume to 100 μl in the other experiments.
For determination of enzyme inhibition constants (Ki) or the mode of inhibition (competitive, uncompetitive or noncompetitive), the rate data determined in the enzyme assays at varying inhibitor concentrations are computer-fit to standard enzyme kinetic equations (see I. H. Segel, Enzyme Kinetics, Wiley-Interscience, 1975).

A value given as a limit tells only on which side of the number the result lay.

As a reminder, the IC50 is the point on the concentration scale where inhibition reaches its midpoint. A low value points to inhibition by little substance. The Ki is a dissociation constant, usually derived from enzyme kinetics or from competition with a known ligand. Lower therefore signals higher affinity.

Take “(3S)-3-(Isoquinolin-1-oyl)amino-4-oxo-2,3,4,5-tetrahydro-5H-1,5-benzoxazepine-N-[(2RS, 3S)-2-benzyloxy-5-oxo-tetrahydrofuran-3-yl]-5-acetamide [Compound 5a]”: the “% Inhibition of IL-1β” value in the assay with IL-1β was 58%.
`O=C[C@H](CC(=O)O)NC(=O)CN1C(=O)[C@@H](NC(=O)c2nccc3ccccc23)CC(=O)c2ccccc21` [Compound 17b, (3S)-3-[(3S)-2,5-Dioxo-3-(isoquinolin-1-oyl)amino-2,3,4,5-tetrahydro-1H-1-benzazopine-1-acetylamino]-4-oxo-butyric acid.]: the values for the half-maximal inhibitory concentration (IC50) in assay [1] and in assay [2] were 1720 nM and > 20000 nM, respectively. In addition, at ICE, the affinity, expressed as Ki, was 45 nM.
On the same counts, the results for `O=C[C@H](CC(=O)O)NC(=O)CN1C(=O)[C@@H](NC(=O)c2nccc3ccccc23)CS(=O)(=O)c2ccccc21` [Compound 19a] are 770 nM, 9500 nM and 140 nM.
`Cc1cc(C(=O)N[C@H]2CC(=O)c3ccccc3N(CC(=O)N[C@H](C=O)CC(=O)O)C2=O)cc(C)c1O` [Compound 17a, (3S)-3-[(3S)-2,5-Dioxo-3-(3,5-dimethyl-4-hydroxybenzoyl)amino-2,3,4,5-tetrahydro-1H-1-benzazepine-1-acetylamino]-4-oxo-butyric acid]: in assay [2], it took 3200 nM to reach half-maximal inhibition (IC50). This molecule also gave a Ki on ICE of 12 nM.
In the case of `O=C[C@H](CC(=O)O)NC(=O)CN1C(=O)[C@@H](NC(=O)c2c[nH]c3ccccc23)COc2ccccc21` [Compound 6c], the IC50 in assay [1] is 650 nM; in assay [2], > 20000 nM. The Ki on ICE turned out to be 20 nM.
For `O=C[C@H](CC(=O)O)NC(=O)CN1C(=O)[C@@H](NC(=O)c2nccc3ccccc23)CSc2ccccc21` [Compound 11b], the IC50 in assay [1] came out at 800 nM; in assay [2], 19000 nM. The molecule further showed a Ki on ICE of 14 nM.
On to “(3S)-3-(Isoquinolin-1-oyl)amino-4-oxo-2,3,4,5-tetrahydo-5H-1,5-benzothiazepine-N-((2RS, 3S)-2-benzyloxy-5-oxo-tetrahydrofuran-3-yl)-5-acetamide [Compound 10b]”, for which the “% Inhibition of IL-1β” value with IL-1β stood at 74%.
As for `Cc1cc(C(=O)N[C@H]2CSc3ccccc3N(CC(=O)N[C@H](C=O)CC(=O)O)C2=O)cc(C)c1O` [Compound 11a, (3S)-3-[(3S)-3-(3,5-Dimethyl-4-hydroxybenzoyl)amino-4-oxo-2,3,4,5-tetrahydro-5H-1,5-benzothiazepine-5-acetylamino]-4-oxo-butyric acid], the midpoint of inhibition in assay [2], the IC50, lay at 8800 nM. The molecule also displayed a Ki at ICE of 7.5 nM.
`O=C[C@H](CC(=O)O)NC(=O)CN1C(=O)[C@@H](NC(=O)c2nccc3ccccc23)COc2ccccc21` [Compound 6a]: the IC50 in assay [1] is 1000 nM; in assay [2] it was > 20000 nM. Also, the Ki on ICE was 22 nM.

Values taken from patent publication US6350741B1, “Inhibitors of interleukin-1β converting enzyme” (Vertex Pharmaceutical, Inc., priority 1996, dated 2002).
